According to patent US5475132A, “Antifungal agents based on amides containing a phenyl group” (Rhone-Poulenc Agrochimie, priority 1988, dated 1995):
Read-outs that look alike come from different tables or passages of the source.

Tested on: Phytophthora citrophthora
Assay: Example B3: action on phytopathogenic soil fungi, growth on agar in Petri dishes
Assay type: cell-based
Details: 120 h, read-out: inhibition of the development of the fungus
[1] = 30 ppm, agar medium, 22° C., 5 days

| SMILES | inhibition at 30 ppm [1] [%] | inhibition at 30 ppm [%] |
| --- | --- | --- |
| COc1ccc(-c2c(C(=O)N3CCOCC3)sc3ccc(NC(=O)c4ccc(Cl)cc4)cc23)cc1OC [Compound 102, 2-(4-Morpholinocarbonyl)-5-(4-chlorobenzoylamino)-3-(3,4-dimethoxyphenyl)benzothiophene] | ≥ 80 | – |
| COc1ccc(-c2ccc(C(=O)N3CCOCC3)c(-c3ccc(OC)c(OC)c3)n2)cc1 [Compound 389] | ≥ 80 | – |
| COc1ccc(-c2cc(Cl)ccc2C(=O)N2CCOCC2)cc1OC [Compound 208] | ≥ 80 | – |
| COc1ccc(-c2nc(-c3ccc(Cl)cc3)c(C)cc2C(=O)N2CCOCC2)cc1OC [Compound 367] | ≥ 80 | – |
| COc1ccc(-c2c(C(=O)N3CCOCC3)sc3ccc([N+](=O)[O-])cc23)cc1OC [Compound 104, 2-(4-Morpholinocarbonyl)-5-nitro-3-(3,4-dimethoxyphenyl)benzothiophene] | ≥ 80 | – |
| CCN(C)C(=O)c1ccc(Cl)cc1-c1ccc(OC)c(OC)c1 [Compound 209] | ≥ 80 | – |
| COc1ccc(-c2nc(-c3ccccc3C)ccc2C(=O)N2CCOCC2)cc1OC [Compound 391] | ≥ 80 | – |
| COc1ccc(-c2nc(Sc3ccc(Br)cc3)ncc2C(=O)N2CCOCC2)cc1OC [Compound 447] | ≥ 80 | – |
| COc1ccc(-c2nc(-c3ccc(Cl)cc3)ccc2C(=O)N2CCOCC2)cc1OC [Compound 345] | ≥ 80 | – |
| CCN(C)C(=O)c1ccc(-c2ccsc2)nc1-c1ccc(OC)c(OC)c1 [Compound 3118] | ≥ 80 | – |
| COc1ccc(-c2nc(N3CCCCC3)ncc2C(=O)N2CCOCC2)cc1OC [Compound 458] | ≥ 80 | – |
| CCN(CC)C(=O)c1ccc(-c2ccc(Cl)cc2)nc1-c1ccc(OC)c(OC)c1 [Compound 364] | ≥ 80 | – |
| COc1ccc(-c2c(C(=O)N3CCCC3)sc3ccccc23)cc1OC [Compound 154] | ≥ 80 | – |
| COc1ccc(-c2c(C(=O)N3CCOCC3)sc3c(N)cccc23)cc1OC [Compound 121] | ≥ 80 | – |
| COc1ccc(-c2c(C(=O)N3CCOCC3)sc3c(F)cccc23)cc1OC [Compound 122] | ≥ 80 | – |
| COc1ccc(-c2nc(SCc3ccc(Cl)cc3)ncc2C(=O)N2CCOCC2)cc1OC [Compound 435] | ≥ 80 | – |
| COc1ccc(-c2c(C(=O)N3CCOCC3)cc(-c3ccccc3)n2C)cc1OC [Compound 621] | ≥ 80 | – |
| COc1ccc(-c2nc(-c3ccc(Cl)cc3)ccc2C(=O)N(C)CCOC(C)=O)cc1OC [Compound 397] | ≥ 80 | – |
| COc1ccc(-c2nc(C=C(C)C)ccc2C(=O)N2CCOCC2)cc1OC [Compound 3111] | ≥ 80 | – |
| COc1ccc(-c2c(C(=O)N3CCCCC3CO)sc3ccccc23)cc1OC (centres unmarked) [Compound 157] | ≥ 80 | – |
| COc1ccc(-c2c(C(=O)N3CCOCC3)oc3ccccc23)cc1OC [Compound 137] | ≥ 80 | – |
| CCN(C)C(=O)c1ccc(-c2ccccc2)nc1-c1ccc(OC)c(OC)c1 [Compound 369] | ≥ 80 | – |
| COCCN(C)C(=O)c1sc2ccc(F)cc2c1-c1ccc(OC)c(OC)c1 [Compound 169] | ≥ 80 | – |
| CCN(CC)C(=O)c1ccc(-c2ccsc2)nc1-c1ccc(OC)c(OC)c1 [Compound 3119] | ≥ 80 | – |
| COc1ccc(-c2nc(Sc3cccc(Cl)c3)ncc2C(=O)N2CCOCC2)cc1OC [Compound 445] | ≥ 80 | – |

| SMILES | inhibition at 30 ppm [1] [%] | inhibition at 30 ppm [%] |
| --- | --- | --- |
| COCCN(C)C(=O)c1c(-c2ccc(OC)c(OC)c2)cc(-c2ccccc2)nc1C [Compound 507] | ≥ 80 | – |
| C=C(C)c1ccc(C(=O)N(C)CC)c(-c2ccc(OC)c(OC)c2)c1 [Compound 212] | ≥ 80 | – |
| C=C(C)c1ccc(C(=O)N(C)CCOC)c(-c2ccc(OC)c(OC)c2)c1 [Compound 213] | ≥ 80 | – |
| COc1ccc(-c2nc(-c3ccccc3)ccc2C(=O)N(C)C)cc1OC [Compound 370] | ≥ 80 | – |
| CCN(C)C(=O)c1ccc(-c2ccc(Br)cc2)nc1-c1ccc(OC)c(OC)c1 [Compound 390] | ≥ 80 | – |
| CCN(C)C(=O)c1sc2ccccc2c1-c1ccc(OC)c(OC)c1 [Compound 150] | ≥ 80 | – |
| COc1ccc(-c2nc(-c3ccccc3Cl)ccc2C(=O)N2CCOCC2)cc1OC [Compound 392] | ≥ 80 | – |
| COc1ccc(-c2nc(-c3ccc(Cl)cc3)ccc2C(=O)N2CCCCC2)cc1OC [Compound 376] | ≥ 80 | – |
| COc1ccc(-c2nc(-c3ccc(Br)cc3)ccc2C(=O)N(C)CCO)cc1OC [Compound 380] | ≥ 80 | – |
| COc1ccc(-c2cc(-c3ccsc3)ccc2C(=O)N2CCOCC2)cc1OC [Compound 238] | ≥ 80 | – |
| COc1ccc(-c2c(C(=O)N3CCOCC3)sc3ccc(F)cc23)cc1OC [Compound 117] | ≥ 80 | – |
| COc1ccc(-c2nc(-c3ccc(Cl)cc3)ccc2C(=O)N(C)Cc2ccco2)cc1OC [Compound 378] | ≥ 80 | – |
| COCC1CCCN1C(=O)c1sc2ccccc2c1-c1ccc(OC)c(OC)c1 (centres unmarked) [Compound 163] | ≥ 80 | – |
| COc1ccc(-c2c(C(=O)N3CCOCC3)sc3ccc(I)cc23)cc1OC [Compound 101, 2-(4-morpholinocarbonyl)-5-iodo-3-(3,4-dimethoxyphenyl)benzothiophene] | ≥ 80 | – |
| COc1ccc(-c2nc(-c3ccsc3)ccc2C(=O)N2CCOCC2)cc1OC [Compound 3112] | ≥ 80 | – |
| COc1ccc(-c2c(C(=O)N3CCOCC3)cnn2-c2ccc(Cl)cc2)cc1OC [Compound 608, 2-(4-Chlorophenyl)-3-(3,4-dimethoxyphenyl)-4-(morpholinocarbonyl)pyrazole] | ≥ 80 | – |
| COc1ccc(-c2c(C(=O)N3CCC(=O)CC3)sc3ccccc23)cc1OC [Compound 162] | – | ≥ 80 |
| COc1ccc(-c2cc(Br)ccc2C(=O)N2CCOCC2)cc1OC [Compound 222] | ≥ 80 | – |
| COc1ccc(-c2nc(-c3ccc(Br)cc3)ccc2C(=O)N(C)CCOC(C)=O)cc1OC [Compound 366] | ≥ 80 | – |
| COc1ccc(-c2nc(-c3ccc(Cl)cc3)ccc2C(=O)N(C)CC2CCCO2)cc1OC (centres unmarked) [Compound 381] | ≥ 80 | – |
| COc1ccc(-c2c(C(=O)N3CCOCC3)sc3c(Cl)cccc23)cc1OC [Compound 124] | ≥ 80 | – |
| COc1ccc(-c2c(C(=O)N(C)CCO)sc3ccccc23)cc1OC [Compound 156] | ≥ 80 | – |
| COc1ccc(-c2c(C(=O)N3CCOCC3)sc3ccccc23)cc1OC [Compound 118] | ≥ 80 | – |
| COc1ccc(-c2nc(-c3ccc(F)cc3)c(C)cc2C(=O)N2CCOCC2)cc1OC [Compound 368] | ≥ 80 | – |
| CCN(CC)C(=O)c1cnc(-c2ccc(Cl)c(Cl)c2)nc1-c1ccc(OC)c(OC)c1 [Compound 420] | ≥ 80 | – |

| SMILES | inhibition at 30 ppm [1] [%] | inhibition at 30 ppm [%] |
| --- | --- | --- |
| COc1ccc(-c2nc(-c3ccc(Cl)cc3)ncc2C(=O)N2CCOCC2)cc1OC [Compound 407, 2-(4-Chlorophenyl)-4-(3,4-dimethoxyphenyl)-5-morpholinocarbonylpyrimidine] | ≥ 80 | – |
| COc1ccc(-c2nc(-c3ccc(C#N)cc3)ccc2C(=O)N2CCOCC2)cc1OC [Compound 382] | ≥ 80 | – |
| COc1ccc(-c2nc(-c3ccc(Cl)cc3)ccc2C(=O)N(C)OC)cc1OC [Compound 394] | ≥ 80 | – |
| COc1ccc(-c2nc(-c3cccc4ccccc34)ccc2C(=O)N2CCOCC2)cc1OC [Compound 3114] | ≥ 80 | – |
| COc1ccc(-c2nc(-c3ccc(C)cc3)ccc2C(=O)N2CCOCC2)cc1OC [Compound 384] | ≥ 80 | – |
| COc1ccc(-c2nc(-c3ccc(C(C)C)cc3)ccc2C(=O)N2CCOCC2)cc1OC [Compound 356] | ≥ 80 | – |
| COc1ccc(-c2c(C(=O)N3CCOCC3)n(C)c3ccc([N+](=O)[O-])cc23)cc1OC [Compound 141] | ≥ 80 | – |
| CCN(CC)C(=O)c1ccc(Cl)cc1-c1ccc(OC)c(OC)c1 [Compound 211] | ≥ 80 | – |
| CCN(CC)C(=O)c1cnc(-c2ccc(Br)cc2)nc1-c1ccc(OC)c(OC)c1 [Compound 430] | ≥ 80 | – |
| COc1ccc(-c2nc(-c3ccc(Cl)cc3)ccc2C(=O)N(C)CCO)cc1OC [Compound 383] | ≥ 80 | – |
| CCCN(C)C(=O)c1ccc(-c2ccccc2)nc1-c1ccc(OC)c(OC)c1 [Compound 365] | ≥ 80 | – |
| COCCN(C)C(=O)c1ccc(-c2ccsc2)nc1-c1ccc(OC)c(OC)c1 [Compound 3117] | ≥ 80 | – |
| CCN(C)C(=O)c1ccc(-c2ccc(C)cc2)cc1-c1ccc(OC)c(OC)c1 [Compound 215] | ≥ 80 | – |
| COc1ccc(-c2nc(C(C)(C)C)ccc2C(=O)N2CCOCC2)cc1OC [Compound 3110] | ≥ 80 | – |
| COc1ccc(-c2nc(Oc3ccc(C(F)(F)F)cc3)ncc2C(=O)N2CCOCC2)cc1OC [Compound 442] | ≥ 80 | – |
| COc1ccc(-c2nc(Oc3ccc(C)cc3)ncc2C(=O)N2CCOCC2)cc1OC [Compound 433, 4-(3,4-dimethoxyphenyl)-2-(4-methylphenoxy)-5-morpholinocarbonylpyrimidine] | ≥ 80 | – |
| COCCN(C)C(=O)c1ccc(-c2ccccc2)nc1-c1ccc(OC)c(OC)c1 [Compound 354] | ≥ 80 | – |
| C=C(C)c1ccc2sc(C(=O)N3CCOCC3)c(-c3ccc(OC)c(OC)c3)c2c1 [Compound 105, 2-(4-Morpholinocarbonyl)-5-(propen-2-yl)-3-(3,4-dimethoxyphenyl)benzothiophene] | ≥ 80 | – |
| COc1ccc(-c2c(C(=O)N3CCOCC3)sc3cc(Cl)ccc23)cc1OC [Compound 125] | ≥ 80 | – |
| CCN(C)C(=O)c1sc2ccc(F)cc2c1-c1ccc(OC)c(OC)c1 [Compound 167] | ≥ 80 | – |
| COc1ccc(-c2nc(-c3ccc(Cl)cc3)ccc2C(=O)N2CCC(O)CC2)cc1OC [Compound 377] | ≥ 80 | – |
| COc1ccc(-c2nc(-c3ccc(Br)cc3)ncc2C(=O)N2CCOCC2)cc1OC [Compound 427] | ≥ 80 | – |
| COc1ccc(-c2c(Br)cccc2C(=O)N2CCOCC2)cc1OC [Compound 223] | ≥ 80 | – |
| O=C(c1ccc(Br)cc1-c1ccc2c(c1)OCO2)N1CCOCC1 [Compound 224] | ≥ 80 | – |
